Assay results published in BindingDB's records for doi:10.1021/cb700072n (University of New Mexico Health Sciences Center, 2007).
pKi: −log10 of the molar value.

How the values were obtained:
Estrogen receptor = target: T1, Estrogen receptor (Homo sapiens, UniProt P03372); test: Competitive Binding Assay
T1 sequence (P03372 whole entry): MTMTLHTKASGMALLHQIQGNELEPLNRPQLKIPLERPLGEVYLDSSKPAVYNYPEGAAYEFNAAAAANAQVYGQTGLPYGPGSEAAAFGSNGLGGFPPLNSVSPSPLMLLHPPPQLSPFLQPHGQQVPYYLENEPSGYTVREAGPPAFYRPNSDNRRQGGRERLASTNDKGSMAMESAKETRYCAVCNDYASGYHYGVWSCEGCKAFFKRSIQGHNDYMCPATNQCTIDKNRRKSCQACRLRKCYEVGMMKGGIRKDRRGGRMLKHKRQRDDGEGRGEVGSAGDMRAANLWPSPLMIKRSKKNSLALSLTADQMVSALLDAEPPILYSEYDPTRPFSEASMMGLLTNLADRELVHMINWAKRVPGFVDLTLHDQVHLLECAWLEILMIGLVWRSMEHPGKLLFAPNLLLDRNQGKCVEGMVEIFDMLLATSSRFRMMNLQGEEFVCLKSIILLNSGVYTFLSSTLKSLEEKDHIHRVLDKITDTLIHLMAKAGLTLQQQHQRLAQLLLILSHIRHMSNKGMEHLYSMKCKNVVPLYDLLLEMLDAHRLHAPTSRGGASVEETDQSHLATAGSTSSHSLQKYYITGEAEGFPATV
Protocol: (§1) Competitive binding of estrogen to GPR30 and ER alpha were conducted using COS-7 cells transfected with GPR30-GFP or ER alpha-GFP and fluorescent estrogen, E2-Alexa633 labeled as a reporter.

[1] = target: G-protein coupled estrogen receptor 1 (Homo sapiens, UniProt Q99527); test: Competitive Binding Assay
Protocol: as §1

Chain of G-protein coupled estrogen receptor 1 (Q99527 whole entry): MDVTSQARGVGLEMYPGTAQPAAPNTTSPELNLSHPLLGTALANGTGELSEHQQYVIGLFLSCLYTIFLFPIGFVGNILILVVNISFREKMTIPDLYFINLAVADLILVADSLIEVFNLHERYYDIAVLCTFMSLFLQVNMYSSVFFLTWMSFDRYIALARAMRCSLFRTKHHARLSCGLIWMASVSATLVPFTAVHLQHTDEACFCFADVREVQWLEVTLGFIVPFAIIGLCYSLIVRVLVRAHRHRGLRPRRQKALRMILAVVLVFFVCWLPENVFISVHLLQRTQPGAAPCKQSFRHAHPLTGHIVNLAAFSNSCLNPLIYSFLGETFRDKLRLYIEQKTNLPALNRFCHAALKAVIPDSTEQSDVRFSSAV

| Structure (SMILES) | pKi (Estrogen receptor) | pKi [1] |
| --- | --- | --- |
| C[C@]12CCC3c4ccc(O)cc4CCC3C1CC[C@@]2(O)C#Cc1cccc(C(=O)O)c1 (stereo partly drawn) [E2-COO-] | 8.70 | 7.52 |
| CC(C)(C)OC(=O)NCc1ccc(C#C[C@]2(O)CCC3C4CCc5cc(O)ccc5C4CC[C@@]32C)cc1 (stereo partly drawn) [E2-NB] | 8.57 | 7.80 |
| C[C@]12CCC3c4ccc(O)cc4CCC3C1CC[C@@]2(O)C#Cc1ccc(CN)cc1 (stereo partly drawn) [E2-NH3+] | 8.39 | 7.60 |
| C[C@]12CCC3c4ccc(O)cc4CCC3C1CC[C@@]2(O)C#Cc1ccc([N+](C)(C)C)cc1 (stereo partly drawn) [E2-NMe3+] | 8.85 | 7.77 |
